In patent US12171230B2, “Herbicidal compositions” (Bayer Aktiengesellschaft, priority 2018, dated 2024):

Experiments:
Assay type in all cases: in vivo
[1] = test system: Bromus sterilis; assay: Post-emergence herbicidal action against Bromus sterilis
Excerpt: (§1) The following abbreviations are used in the description and the tables that follow: • g of a.i./ha=grams of active substance (active ingredient) (=100% active compound) per hectare; • The sum total of the effects of the individual applications is reported under E^A; • expected values according to Colby are each reported under E^C.
(§2) The rating period is reported in days after application (DAT).

[2] = test system: Lolium rigidum; assay: Post-emergence herbicidal action against Lolium rigidum
Excerpt: as §1, §2

[3] = test system: Alopecurus myosuroides; assay: Post-emergence herbicidal action against Alopecurus myosuroides
Excerpt: as §1, §2

[4] = test system: Lolium rigidum (resistant biotype); assay: Post-emergence herbicidal action against Lolium rigidum (resistant biotype)
Excerpt: as §1, §2

[5] = test system: Poa annua; assay: Post-emergence herbicidal action against Poa annua; settings: post-emergence
Protocol: (§3) When the observed efficacies exceed the formal sum total of the values of the tests with individual applications, they also exceed the expected value according to Colby, which is calculated using the formula below and is likewise regarded as an indication of synergism (cf. S. R. Colby; in Weeds 15 (1967) p. 20 to 22): E^C=A+B−([…])
(§4) Here: • A=efficacy of the active compound (A) in % at an application rate of a g a.i./ha; • B=efficacy of the active compound (B) in % at an application rate of b g a.i./ha; • E^C=expected value of the effect of the combination (A)+(B) in % at the combined application rate a+b g a.i./ha.
(§5) Seeds or rhizome pieces of mono- and dicotyledonous weeds are placed in sandy loam in pots, covered with soil and grown in a greenhouse under good growth conditions (temperature, air humidity, water supply). Three weeks after sowing, the test plants were treated at the three-leaf stage with the compositions according to the invention. The compositions according to the invention formulated as spray powders or as emulsion concentrates were sprayed onto the green plant parts in various dosages with an application rate of 300 to 800 l/ha of water (equivalent). After the test plants have been left to stand in the greenhouse under optimal growth conditions for about 3 to 4 weeks, the action of the preparations is scored visually in comparison to untreated controls. The compositions according to the invention also have good post-emergence herbicidal activity against a broad spectrum of economically important gramineous and broadleaf weeds.

[6] = test system: Matricaria inodora; assay: Post-emergence herbicidal action against Matricaria inodora; settings: post-emergence, 14 DAT
[7] = test system: Phalaris minor; assay: Post-emergence herbicidal action against Phalaris minor
Excerpt: as §1, §2

[8] = test system: Veronica hederifolia; assay: Post-emergence herbicidal action against Veronica hederifolia
Excerpt: as §1, §2

[9] = test system: Amaranthus palmeri; assay: Post-emergence herbicidal action against Amaranthus palmeri; settings: Amaranthus palmeri, post-emergence, 504 h, read-out: Herbicidal action 21 DAT [%] against Amaranthus palmeri
Protocol: as §3, §4, §5

[10] = test system: Bidens pilosa; assay: Post-emergence herbicidal action against Bidens pilosa; settings: post-emergence, 21 DAT
Protocol: as §3, §4, §5

[11] = test system: Abutilon theophrasti; assay: Post-emergence herbicidal action against Abutilon theophrasti
Excerpt: as §1, §2

[12] = test system: Pharbitis purpurea; assay: Post-emergence herbicidal action against Pharbitis purpurea; settings: post-emergence
Protocol: as §3, §4, §5

[13] = test system: Digitaria sanguinalis; assay: Post-emergence herbicidal action against Digitaria sanguinalis; settings: 12 g of a.i./ha, post-emergence
Protocol: as §3, §4, §5

[14] = test system: Brachiaria platyphylla; assay: Post-emergence herbicidal action against Brachiaria platyphylla; settings: 4 g of a.i./ha, post-emergence, block with (B9.10) Saflufenacil
Protocol: as §3, §4, §5

## COc1c(Cl)ccc(-c2cc(N)c(Cl)c(C(=O)O)n2)c1F [(B5.31) Halauxifen]
[1]; 1 g of a.i./ha
  Herbicidal action in [%] 14 DAT against Bromus sterilis: 0%
  Herbicidal action in [%] 28 DAT against Bromus sterilis: 0%
[1]; 3 g of a.i./ha
  Herbicidal action in [%] 14 DAT against Bromus sterilis: 10%
  Herbicidal action in [%] 28 DAT against Bromus sterilis: 0%
[1]; 9 g of a.i./ha
  Herbicidal action in [%] 14 DAT against Bromus sterilis: 30%
  Herbicidal action in [%] 28 DAT against Bromus sterilis: 20%
[2]; 1 g of a.i./ha
  Herbicidal action in [%] 14 DAT against Lolium rigidum: 0%
  Herbicidal action in [%] 28 DAT against Lolium rigidum: 0%
[2]; 3 g of a.i./ha
  Herbicidal action in [%] 14 DAT against Lolium rigidum: 0%
  Herbicidal action in [%] 28 DAT against Lolium rigidum: 0%
[2]; 9 g of a.i./ha
  Herbicidal action in [%] 14 DAT against Lolium rigidum: 5%
  Herbicidal action in [%] 28 DAT against Lolium rigidum: 0%
[3]; 1 g of a.i./ha
  Herbicidal action in [%] 14 DAT against Alopecurus myosuroides: 0%
  Herbicidal action in [%] 28 DAT against Alopecurus myosuroides: 0%
[3]; 3 g of a.i./ha
  Herbicidal action in [%] 14 DAT against Alopecurus myosuroides: 0%
  Herbicidal action in [%] 28 DAT against Alopecurus myosuroides: 0%
[3]; 9 g of a.i./ha
  Herbicidal action in [%] 14 DAT against Alopecurus myosuroides: 5%
  Herbicidal action in [%] 28 DAT against Alopecurus myosuroides: 0%
[4]; 1 g of a.i./ha
  Herbicidal action in [%] 14 DAT against Lolium rigidum (resistant biotype): 0%
  Herbicidal action in [%] 28 DAT against Lolium rigidum (resistant biotype): 0%
[4]; 3 g of a.i./ha
  Herbicidal action in [%] 14 DAT against Lolium rigidum (resistant biotype): 0%
  Herbicidal action in [%] 28 DAT against Lolium rigidum (resistant biotype): 0%
[4]; 9 g of a.i./ha
  Herbicidal action in [%] 14 DAT against Lolium rigidum (resistant biotype): 5%
  Herbicidal action in [%] 28 DAT against Lolium rigidum (resistant biotype): 10%
[5]; 1 g of a.i./ha
  Herbicidal action in [%] 14 DAT against Poa annua L.: 0%
  Herbicidal action in [%] 28 DAT against Poa annua L.: 0%
[5]; 3 g of a.i./ha
  Herbicidal action in [%] 14 DAT against Poa annua L.: 0%
  Herbicidal action in [%] 28 DAT against Poa annua L.: 0%
[5]; 9 g of a.i./ha
  Herbicidal action in [%] 14 DAT against Poa annua L.: 5%
  Herbicidal action in [%] 28 DAT against Poa annua L.: 0%
[6]; 1 g of a.i./ha
  Herbicidal action in [%] 14 DAT against Matricaria inodora: 30%
[6]; 3 g of a.i./ha
  Herbicidal action in [%] 14 DAT against Matricaria inodora: 40%
[6]; 9 g of a.i./ha
  Herbicidal action in [%] 14 DAT against Matricaria inodora: 60%
[7]; 1 g of a.i./ha
  Herbicidal action in [%] 14 DAT against Phalaris minor: 0%
  Herbicidal action in [%] 28 DAT against Phalaris minor: 0%
[7]; 3 g of a.i./ha
  Herbicidal action in [%] 14 DAT against Phalaris minor: 0%
  Herbicidal action in [%] 28 DAT against Phalaris minor: 0%
[7]; 9 g of a.i./ha
  Herbicidal action in [%] 14 DAT against Phalaris minor: 5%
  Herbicidal action in [%] 28 DAT against Phalaris minor: 5%
[8]; 3 g of a.i./ha
  Herbicidal action in [%] 14 DAT against Veronica hederifolia: 60%
[8]; 9 g of a.i./ha
  Herbicidal action in [%] 14 DAT against Veronica hederifolia: 60%

## C[n+]1ccc(-c2cc[n+](C)cc2)cc1 [(B5.37) Paraquat]
[9]
  pest or weed control at 5 g/ha: 0%
  pest or weed control at 45 g/ha: 10%
[10]; 5 g of a.i./ha
  Herbicidal action 21 DAT [%] against Bidens pilosa: 0%
[10]; 45 g of a.i./ha
  Herbicidal action 21 DAT [%] against Bidens pilosa: 10%
[11]; 5 g of a.i./ha
  Herbicidal action 21 DAT [%] against Abutilon theophrasti: 0%
[11]; 45 g of a.i./ha
  Herbicidal action 21 DAT [%] against Abutilon theophrasti: 10%
[12]; 21 DAT, 5 g of a.i./ha
  Herbicidal action 21 DAT [%] against Pharbitis purpurea: 15%

## CC(C)N(C)S(=O)(=O)NC(=O)c1cc(-n2c(=O)cc(C(F)(F)F)n(C)c2=O)c(F)cc1Cl [(B9.10) Saflufenacil, saflufenacil, reference compound]
[9]; 1.3 g of a.i./ha, block with (B9.10) Saflufenacil
  pest or weed control at 1.3 g/ha: 70%
[13]
  Herbicidal action 21 DAT [%] against Digitaria sanguinalis: 50%
[14]
  Herbicidal action 21 DAT [%] against Brachiaria platyphylla: 25%
[12]; 1.3 g of a.i./ha
  Herbicidal action 21 DAT [%] against Pharbitis purpurea: 30%
